Data from patent US9820972B2, “Antiviral compounds highly effective as HCV-NS5A inhibitor” (priority 2013, dated 2017).
pEC50: −log10 of the molar value. Where two headings read alike, the source gives them in different places.

How the values were obtained:
GT-1a of NS5A Replicon = assay: HCV double reporter gene (Renilla luciferase) replicon assay, GT-1a; type: cell-based, Hepatitis C virus (HCV); details: Hepatitis C virus; for pEC50: GT1A, GT-1a replicon, class symbols, read-out: EC50 For GT-1a of NS5A Replicon; for EC50: genotype 1a / genotype 6a, read-out: EC50 for Replicon (pM) of GT-1a to GT-6a: 1a
How it was run: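 Replication measured in a double-reporter HCV replicon cell system by Renilla luciferase signal. EC50 from 8-point 2-fold dilutions, triplicate wells, three repeats, with 1 or 2 control drugs.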

[1] = Acute Toxicity Study (MTD); type: in vivo, rats and mice; details: rats or mice, fed once, oral dose 10000 mg/kg, observed for a week
Description: Acute Toxicity Study (MTD):
Materials and Methods for MTD Study are as follows:
Animals were fed freely for adaptation more than 1 week. Healthy rats, body weight between 170-190 g, were divided randomly into 3 groups, 5 male and 5 female in each group. Healthy mice, body weight between 18-22 g, were divided randomly into 22 groups, 5 male and 5 female in each group.
In rats, the compound weighing 21.00 g, serial number 1-3 respectively, adding 0.7% sodium carboxymethyl cellulose solution 30.00 g, high-speed homogenizer machine 15000 RPM, 10 min mixing, the rats were fed once, oral dose 10000 mg/kg. In mice, the compound weighing 2.00 g, serial number 4-25 respectively, adding 0.7% sodium carboxymethyl cellulose solution 8.00 g, high-speed homogenizer machine 10000 RPM, 10 min mixing, the mice were fed once, oral dose 10000 mg/kg.
Animals were observed every hour after administration in the first day, and behavior observation daily continuous for a week. Dead animals were necropsied, gross pathology of the organs were observed and recorded.
Toxicity was evaluated by animal mortality, signs of clinical behavior and others.

HCV NS5A Replicon GT-1b = assay: HCV double reporter gene replicon assay, GT-1b; type: cell-based; details: Hepatitis C virus, genotype 1a / genotype 1b / genotype 6a; GT-1b replicon
Protocol: (§1) Antiviral Assay for Inhibition Activity (EC50):
(§2) The study is completed by a new constructed double reporter genes replicon assay system, the capacity of viral replicon in infected cell is determined by detecting the reporter gene Renilla luciferase. The relationship of reporter genes, HCV RNA replicon and viral proteins is well linear. 8 gradient concentrations for 2-fold dilution, 3 wells, 3 times repetition and 1 or 2 control drugs are set to finally determine EC50 of compound.
(§3) THF was distilled from sodium metal and benzophenone. DCM, pentane and hexane were distilled form calcium hydride. Special raw material and intermediate in the invention were ordered by contract synthesis from Zannan SciTech Co., Let in China, others reagents were purchased from Shanghai reagent company, Aldrich, Acros etc. As intermediates or products during the synthesis is not required for the reaction and other tests the next step, the synthesis is repeated until a sufficient number of times. The invention of the prepared compounds of […] (HCV NS5A) inhibitory activity test was performed by CRO service units such as WuXi AppTec etc.

HCV NS5A Replicon GT-2a = assay: HCV double reporter gene replicon assay, GT-2a; type: cell-based; details: Hepatitis C virus, genotype 1a / genotype 2a / genotype 6a; GT-2a replicon
Protocol: as §1, §2, §3

HCV NS5A Replicon GT-6a = assay: HCV double reporter gene replicon assay, GT-6a; type: cell-based; details: Hepatitis C virus, genotype 1a / genotype 6a; GT-6a replicon
Protocol: as §1, §2, §3

HCV NS5A Replicon GT-4a = assay: HCV double reporter gene replicon assay, GT-4a; type: cell-based; details: Hepatitis C virus, genotype 1a / genotype 4a / genotype 6a; GT-4a replicon
Protocol: as §1, §2, §3

HCV NS5A Replicon GT-5a = assay: HCV double reporter gene replicon assay, GT-5a; type: cell-based; details: Hepatitis C virus, genotype 1a / genotype 5a / genotype 6a; GT-5a replicon
Protocol: as §1, §2, §3

HCV NS5A Replicon GT-3a = assay: HCV double reporter gene replicon assay, GT-3a; type: cell-based; details: Hepatitis C virus, genotype 1a / genotype 3a / genotype 6a; GT-3a replicon
Protocol: as §1, §2, §3

COC(=O)N[C@H](C(=O)N1CC=C[C@H]1c1ncc(-c2cc3sc(-c4ccc(-c5cnc([C@@H]6CCCN6C(=O)[C@H](NC(=O)OC)c6ccccc6)[nH]5)cc4)cc3s2)[nH]1)C(C)C [Compound 6fp]
pEC50 (GT-1a of NS5A Replicon): 9.00 to 12.00
MTD results: test-article related death and adverse events [1]: no any test-article related death and no any adverse events observed

COC(=O)N[C@H](C(=O)N1CCC[C@H]1c1nc(-c2ccc(-c3ccc(-c4cnc([C@@H]5C=CCN5C(=O)[C@H](NC(=O)OC)c5ccccc5)[nH]4)cc3)cc2)c[nH]1)C(C)C [Compound 6dy]
EC50 (HCV NS5A Replicon GT-1b): 14 pM
EC50 (HCV NS5A Replicon GT-2a): 6 pM
EC50 (GT-1a of NS5A Replicon): 11 pM
EC50 (HCV NS5A Replicon GT-6a): 24 pM

COC(=O)N[C@H](C(=O)N1CCC[C@H]1c1nc(-c2ccc(-c3ccc(-c4c[nH]c([C@@H]5CCCN5C(=O)[C@@H](NC(=O)OC)C(C)C)n4)cc3)cc2)c[nH]1)C(C)C [Ref-1, reference compound]
EC50 (HCV NS5A Replicon GT-1b): 21 pM
EC50 (HCV NS5A Replicon GT-2a): 29 pM
EC50 (GT-1a of NS5A Replicon): 52 pM
EC50 (HCV NS5A Replicon GT-6a): 118 pM

COC(=O)N[C@H](C(=O)N1CC=CC1c1nc(-c2ccc(-c3ccc(-c4c[nH]c(C5CCCN5C(=O)[C@H](NC(=O)OC)c5ccccc5)n4)cc3)cc2)c[nH]1)C(C)C (stereo partly drawn) [Compound 6by]
pEC50 (GT-1a of NS5A Replicon): 9.00 to 12.00
MTD results: test-article related death and adverse events [1]: no any test-article related death and no any adverse events observed

COC(=O)N[C@H](C(=O)N1CC=C[C@H]1c1ncc(-c2ccc(-c3cc4sc(-c5cnc([C@@H]6CCCN6C(=O)[C@H](NC(=O)OC)c6ccccc6)[nH]5)cc4s3)cc2)[nH]1)C(C)C [Compound 6fi]
EC50 (HCV NS5A Replicon GT-1b): 5 pM
EC50 (HCV NS5A Replicon GT-2a): 7 pM
EC50 (GT-1a of NS5A Replicon): 20 pM
EC50 (HCV NS5A Replicon GT-6a): 55 pM
MTD results: test-article related death and adverse events [1]: no any test-article related death and no any adverse events observed

COC(=O)N[C@@H](C(=O)N1CC=CC1c1nc(-c2ccc(-c3ccc(-c4c[nH]c(C5CCCN5C(=O)[C@H](NC(=O)OC)c5ccccc5)n4)cc3)cc2)c[nH]1)c1ccccc1 (stereo partly drawn) [Compound 6bz]
pEC50 (GT-1a of NS5A Replicon): 9.00 to 12.00
MTD results: test-article related death and adverse events [1]: no any test-article related death and no any adverse events observed

COC(=O)N[C@H](C(=O)N1CC=C[C@H]1c1ncc(-c2ccc(-c3ccc(-c4c[nH]c([C@@H]5CCCN5C(=O)[C@@H](NC(=O)OC)C(C)C)n4)cc3)cc2)[nH]1)C(C)C [Compound 6ba]
EC50 (HCV NS5A Replicon GT-1b): 12 pM
EC50 (HCV NS5A Replicon GT-2a): 16 pM
EC50 (GT-1a of NS5A Replicon): 39 pM
EC50 (HCV NS5A Replicon GT-6a): 221 pM
MTD results: test-article related death and adverse events [1]: no any test-article related death and no any adverse events observed

COC(=O)N[C@H](C(=O)N1CCCC1c1nc(-c2cc3sc(-c4ccc(-c5c[nH]c(C6C=CCN6C(=O)[C@H](NC(=O)OC)c6ccccc6)n5)cc4)cc3s2)c[nH]1)C(C)C (stereo partly drawn) [Compound 6fc]
MTD results: test-article related death and adverse events [1]: no any test-article related death and no any adverse events observed

COC(=O)N[C@@H](C(=O)N1CC=CC1c1nc(-c2ccc(-c3cc4sc(-c5c[nH]c(C6CCCN6C(=O)[C@H](NC(=O)OC)c6ccccc6)n5)cc4s3)cc2)c[nH]1)c1ccccc1 (stereo partly drawn) [Compound 6fd]
EC50 (HCV NS5A Replicon GT-1b): 11 pM
EC50 (HCV NS5A Replicon GT-2a): 5 pM
pEC50 (GT-1a of NS5A Replicon): 9.00 to 12.00
EC50 (GT-1a of NS5A Replicon): 21 pM
EC50 (HCV NS5A Replicon GT-4a): 8 pM
EC50 (HCV NS5A Replicon GT-5a): 23 pM
EC50 (HCV NS5A Replicon GT-6a): 111 pM
EC50 (HCV NS5A Replicon GT-3a): 15 pM
MTD results: test-article related death and adverse events [1]: no any test-article related death and no any adverse events observed

COC(=O)N[C@H](C(=O)N1CC=C[C@H]1c1ncc(-c2ccc(-c3cc4sc(-c5cnc([C@@H]6CCCN6C(=O)[C@@H](NC(=O)OC)C(C)C)[nH]5)cc4s3)cc2)[nH]1)C(C)C [Compound 6fg]
pEC50 (GT-1a of NS5A Replicon): 9.00 to 12.00
MTD results: test-article related death and adverse events [1]: no any test-article related death and no any adverse events observed

COC(=O)N[C@H](C(=O)N1CCCC1c1nc(-c2ccc(-c3ccc(-c4c[nH]c(C5C=CCN5C(=O)[C@H](NC(=O)OC)c5ccccc5)n4)cc3)cc2)c[nH]1)C(C)C (stereo partly drawn) [Compound 6bx]
pEC50 (GT-1a of NS5A Replicon): 9.00 to 12.00
MTD results: test-article related death and adverse events [1]: no any test-article related death and no any adverse events observed

COC(=O)N[C@H](C(=O)N1CCC[C@H]1c1ncc(-c2ccc(-c3cc4sc(-c5cnc([C@@H]6C=CCN6C(=O)[C@H](NC(=O)OC)c6ccccc6)[nH]5)cc4s3)cc2)[nH]1)C(C)C [Compound 6fm]
EC50 (HCV NS5A Replicon GT-1b): 13 pM
EC50 (HCV NS5A Replicon GT-2a): 8 pM
EC50 (GT-1a of NS5A Replicon): 9 pM
EC50 (HCV NS5A Replicon GT-6a): 23 pM
MTD results: test-article related death and adverse events [1]: no any test-article related death and no any adverse events observed

COC(=O)N[C@@H](C(=O)N1CC=C[C@H]1c1ncc(-c2cc3sc(-c4ccc(-c5cnc([C@@H]6CCCN6C(=O)[C@H](NC(=O)OC)c6ccccc6)[nH]5)cc4)cc3s2)[nH]1)c1ccccc1 [Compound 6fk]
pEC50 (GT-1a of NS5A Replicon): 9.00 to 12.00

COC(=O)N[C@H](C(=O)N1CC=C[C@H]1c1ncc(-c2ccc(-c3ccc(-c4cnc([C@@H]5CCCN5C(=O)[C@@H](NC(=O)OC)C5CCCCC5)[nH]4)cc3)cc2)[nH]1)C1CCCCC1 [Compound 6dk]
pEC50 (GT-1a of NS5A Replicon): 9.00 to 12.00

COC(=O)N[C@H](C(=O)N1CC=C[C@H]1c1ncc(-c2ccc(-c3ccc(-c4cnc([C@@H]5CN(S(=O)(=O)C6CC6)CN5C(=O)[C@@H](NC(=O)OC)C(C)C)[nH]4)cc3)cc2)[nH]1)C(C)C [Compound 6da]
pEC50 (GT-1a of NS5A Replicon): 9.00 to 12.00

COC(=O)N[C@H](C(=O)N1CC(OC(=O)N2Cc3cc4c(cc3C2)OCO4)CC1c1nc(-c2ccc(-c3ccc(-c4c[nH]c([C@@H]5CC6(CC6)CN5C(=O)[C@@H](NC(=O)OC)C(C)C)n4)cc3)cc2)c[nH]1)C(C)C (stereo partly drawn) [Compound 6ak]
pEC50 (GT-1a of NS5A Replicon): 9.00 to 12.00

COC(=O)N[C@H](C(=O)N1CC=C[C@H]1c1nc(-c2ccc(-c3ccc(-c4cnc([C@@H]5CC6(CN5C(=O)[C@@H](NC(=O)OC)C(C)C)OCCO6)[nH]4)cc3)cc2)c[nH]1)C(C)C [Compound 6dt]
pEC50 (GT-1a of NS5A Replicon): 9.00 to 12.00
